Data published in US20170312205A1, “USE OF ESTERS OF N-ACYLATED DERIVATIVES OF AMINO ACIDS AND POLYOLS AS AN ANTI-AGEING AGENT FOR HUMAN SKIN” (SOCIETE D'EXPLOITATION DE PRODUITS POUR LES INDUSTRIES …, priority 2014, published 2017).

System: normal human fibroblasts
Test: in vitro study of migration of human fibroblasts (Oris migration plates, Calcein AM labeling)
Format: cell-based
Conditions: for mean migration distance of the cells (Dmigr): 40 hours incubation at 37° C., mitomycin C pretreated, quadruplicate; for [(Dmigr) − (Dmigr)control]/(Dmigr)control (percentage of migratory effect relative to the control): 40 hours incubation, vs FCS culture control
From the text: The fibroblast migration test is a test commonly used in the cosmetics and pharmaceutical sector and is especially described in the international patent application published under the number WO 2010/056908 A1. It allows in vitro reproduction of the phenomenon of fibroblast migration; a decrease in the migratory capacities of the fibroblasts being reported as associated with aging of the skin (1) (4).
Normal human fibroblasts at the R5 passage were amplified in a T75 culture flask and then inoculated at 25 000 cells/well in specific culture plates. These plates are dedicated to migration (Oris™ from Platypus), integrating a central zone without initial deposition of cells (stoppers). After 96 hours of plate amplification and 2 hours before the treatment, all the wells were treated with mitomycin C (2 hours at […]), so as to stop the cell proliferation, and thus to observe only the migration phenomenon. The stoppers were removed, and the references, the products or standard medium for fibroblasts containing 2% fetal calf serum (FCS) were applied to the cells under 100 μl, and then incubated for 40 hours at 37° C. under 5% CO2. Each condition was performed in quadruplicate.
On conclusion of the incubation, the cells were labeled with Calcein AM (5 μM, 20 minutes at 37° C.), so as to visualize the viable cells by fluorescence (revelation of the cytoplasm). Photos were taken, after having inserted a black screen under the culture plates, so as to visualize only the zone where the cells were not deposited. Thus, only the cells which had migrated were photographed (×4 objective lens; with a ×0.7 reducer on the camera adapter). The mean migration distance of the cells (Dmigr) was measured with NIS-Elements-BR 3.0 (4 cells). The means and standard deviations of the distances were calculated on the quadruplicates. The percentages of migratory effect relative to the control, and also the statistics (Student test) were also calculated.

## Epidermal Growth Factor [Epidermal Growth Factor (EGF)]
EGF 10 ng/ml
  mean migration distance of the cells (Dmigr): 203 ± 20 μm
  [(Dmigr) − (Dmigr)control]/(Dmigr)control (percentage of migratory effect relative to the control): +21%
EGF 50 ng/ml
  mean migration distance of the cells (Dmigr): 212 ± 8 μm
  [(Dmigr) − (Dmigr)control]/(Dmigr)control (percentage of migratory effect relative to the control): +26%
EGF at 10 and 50 ng/ml with normal human fibroblasts, validates the model
  migration distance of the fibroblasts (result in words): increase in the migration distance
